Assay results reported in publication PMC4643906, “Interaction of the N-(3-Methylpyridin-2-yl)amide Derivatives of Flurbiprofen and Ibuprofen with FAAH: Enantiomeric Selectivity and Binding Mode” (PLoS ONE, 2015).
Where a chain is given by its changes, count along the chain named. Read-outs that look alike come from different tables or passages of the source.

Key:
rat brain FAAH = biological target: T1, rat brain FAAH (Rattus norvegicus, UniProt P97612); assay: Inhibition of [3H]AEA hydrolysis in rat brain homogenates; format: biochemical; settings: for mode of inhibition (best-fit model) / α / Ki: 0.5–4 μM [3H]AEA; for mode of inhibition (best-fit model): compared with pure competitive model; for interaction with carprofen in multiple inhibition experiments: Dixon plots, together with carprofen; for remaining activity at 0.7 µM: 0.7 μM inhibitor
T1 construct: from tissue; host or cells: rat brain (minus cerebellum), washed membrane pellet
T1 sequence (P97612 1-579): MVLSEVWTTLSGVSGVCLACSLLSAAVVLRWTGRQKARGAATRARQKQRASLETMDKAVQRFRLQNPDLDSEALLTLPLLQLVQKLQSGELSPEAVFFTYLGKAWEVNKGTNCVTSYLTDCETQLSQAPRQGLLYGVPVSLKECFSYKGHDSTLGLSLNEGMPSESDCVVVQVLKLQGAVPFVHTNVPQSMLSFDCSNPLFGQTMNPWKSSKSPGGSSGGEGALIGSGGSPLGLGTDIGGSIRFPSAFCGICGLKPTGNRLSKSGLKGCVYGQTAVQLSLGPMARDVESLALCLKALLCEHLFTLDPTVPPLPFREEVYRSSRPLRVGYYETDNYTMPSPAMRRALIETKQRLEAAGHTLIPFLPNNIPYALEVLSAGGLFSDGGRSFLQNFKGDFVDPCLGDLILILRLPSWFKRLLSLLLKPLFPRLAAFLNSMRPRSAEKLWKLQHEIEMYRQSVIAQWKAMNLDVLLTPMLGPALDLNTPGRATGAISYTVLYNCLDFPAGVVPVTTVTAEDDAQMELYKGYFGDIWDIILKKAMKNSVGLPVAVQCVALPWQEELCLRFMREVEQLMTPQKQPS
Protocol: (§1) Brains (minus cerebella) from adult Wistar or Sprague-Dawley rats (killed by decapitation) and from male B6CBAF1/J mice (killed by cervical dislocation), stored at -80°C, were thawed, weighed and homogenized in cold buffer (20 mM HEPES, 1 mM MgCl2 pH 7.0). Homogenates were centrifuged (35,000 g at 4°C for 20 min) before the pellet was resuspended in cold homogenization buffer. Centrifugation and resuspension was repeated twice. The suspension was incubated at 37°C for 15 min to degrade any endogenous substrate able to interfere with the FAAH assay. After centrifugation (35,000 g at 4°C for 20 min), the pellet was resuspended in cold buffer (50 mM Tris-HCl, 1mM EDTA, 3 mM MgCl2, pH 7.4). The protein concentration was determined according to [27] after which the samples were frozen in aliquots at -80°C.
(§2) The assays were performed according to [28] with minor modifications. Briefly, homogenates or cell lysates in assay buffer (10 mM Tris-HCl, 1mM EDTA, pH 7.4) were mixed with substance dissolved in ethanol on ice. Hydrolysis reactions were initiated by addition of substrate ([^3H]AEA in 10 mM Tris-HCl, 1mM EDTA, pH 7.4 containing 10 mg ml^-1 fatty acid-free bovine serum, assay concentration 0.5 μM unless otherwise stated) and incubation at 37°C. For the brain homogenates, hydrolysis at 37°C was allowed to proceed for 10 min (assay volume was 200 μL, with 1 and 0.3 μg/assay protein concentrations of the rat and mouse homogenates, respectively). For the kinetic experiments, the AEA: fatty acid-free bovine serum albumin ratio was kept constant at 1: ~4.5 (μM). Following incubation, reactions were stopped by addition of 400 μL activated charcoal (80 μL activated charcoal + 320 μL 0.5 M HCl) and placement of samples on ice before centrifugation at 2500 rpm for 10 min. Aliquots (200 μL) of the supernatant were analyzed for tritium content by liquid scintillation spectroscopy with quench correction. Sample sizes were chosen on the basis of previous data investigating FAAH inhibitory properties of compounds.
(§3) pI50 and IC50 values were calculated using log(inhibitor) vs. response with variable slope (four parameters) algorithm in the GraphPad Prism computer program (GraphPad Software Inc., San Diego, CA. USA). […] The best fit was chosen by Akaike’s informative criteria. Ki and α values were obtained using the enzyme kinetics mixed model inhibition curve fitting algorithm available in the GraphPad Prism programme. This models the observed velocity v^app at a given substrate concentration where v^app = Vmax ^app/(1 + Km ^app/[S]), Vmax ^app = Vmax/(1+[I]/(αKi)) and Km ^app = Km(1+[I]/Ki)/(1+[I]/(αKi)) (http://www.graphpad.com/guides/prism/6/curve-fitting/index.htm?reg_mixered_model.htm, URL checked 16 October 2015). The model assuming competitive interactions (where α→∞) was also used, and the best fit was chosen by Akaike’s informative criteria. Robust linear regressions for the Dixon plots, which are less sensitive to outliers than the standard least-squares methodology were undertaken using the same computer programme.

mouse brain FAAH [1] = biological target: T2, mouse brain FAAH (Mus musculus, UniProt O08914); assay: Inhibition of [3H]AEA hydrolysis in mouse brain homogenates; format: biochemical; settings: 0.5 μM [3H]AEA
T2 construct: from tissue; host or cells: mouse brain (minus cerebellum), washed membrane pellet
T2 sequence (O08914 1-579): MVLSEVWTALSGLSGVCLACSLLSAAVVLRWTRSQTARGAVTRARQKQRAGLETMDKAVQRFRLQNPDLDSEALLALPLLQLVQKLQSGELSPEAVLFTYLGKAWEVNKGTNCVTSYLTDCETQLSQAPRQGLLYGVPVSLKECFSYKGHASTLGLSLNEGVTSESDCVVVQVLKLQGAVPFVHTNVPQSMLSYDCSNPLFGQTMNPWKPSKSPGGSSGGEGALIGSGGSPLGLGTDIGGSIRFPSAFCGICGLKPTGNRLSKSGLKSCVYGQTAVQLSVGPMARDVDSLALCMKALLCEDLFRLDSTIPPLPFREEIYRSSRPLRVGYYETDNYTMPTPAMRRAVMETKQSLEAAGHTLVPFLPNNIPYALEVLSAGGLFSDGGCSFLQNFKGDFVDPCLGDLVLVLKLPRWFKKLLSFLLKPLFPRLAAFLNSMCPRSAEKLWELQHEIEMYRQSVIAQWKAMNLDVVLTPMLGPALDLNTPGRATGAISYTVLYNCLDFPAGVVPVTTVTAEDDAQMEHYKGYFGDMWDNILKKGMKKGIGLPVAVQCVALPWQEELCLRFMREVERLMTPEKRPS
Protocol: as §1, §2, §3

[2] = biological target: T3, rat wild-type FAAH (FAAH^wt) (Rattus norvegicus, UniProt P97612); assay: Inhibition of [3H]AEA hydrolysis in lysates of HeLa cells expressing wild-type FAAH; format: biochemical
T3 construct: expressed in transfected cells; host or cells: HeLa cells, pcDNA4 plasmid, lysate
T3 sequence (P97612 1-579): T1 sequence (P97612 1-579)

mouse brain FAAH [3] = biological target: T2, mouse brain FAAH; parameters: method as in PMID 26406890; settings: cited from earlier work; for IC50 / pI50: mouse brain homogenates
FAAH^T488A = biological target: T4, FAAH^T488A (Rattus norvegicus, UniProt P97612, T488A); assay: Inhibition of [3H]AEA hydrolysis in lysates of HeLa cells expressing FAAH^T488A; format: biochemical; settings: FAAH^T488A lysate 0.4 μg/assay, 18 h, 0.5 μM [3H]AEA
T4 construct: expressed in transfected cells; host or cells: HeLa cells, pcDNA4 plasmid, lysate
T4 sequence (P97612 1-579 T488A): T1 sequence (P97612 1-579) with T488A

[4] = linear mixed inhibition model fit
[5] = linear mixed inhibition model fit, read-out: Ki
[6] = median of Dixon plot intersections, read-out: Ki (Dixon plot)
[7] = rat brain homogenates, 0.5 μM [3H]AEA
[8] = rat brain homogenates, 0.5 μM [3H]AEA, read-out: IC50
[9] = rat brain homogenates, 0.5 μM [3H]AEA, read-out: pI50 (converted)
[10] = preliminary experiments, another batch of wild-type FAAH, 1.5–2 μg/assay, 20 min at 37°C, read-out: potencies
[11] = FAAH^wt + empty vector (0.36 μg/assay) lysates, 18 h, 0.5 μM [3H]AEA
[12] = FAAH^wt lysate 0.04 μg/assay, 18 h, 0.5 μM [3H]AEA

α (rat brain FAAH; [4]) | Ki (rat brain FAAH; [5]) [µM] | Ki (rat brain FAAH; [6]) [µM] | nH (Hill slope) (rat brain FAAH; [7]) | IC50 (rat brain FAAH; [8]) [µM] | IC50 (rat brain FAAH; [9]) [µM] | nH (Hill slope) (mouse brain FAAH [1]) | IC50 [2, 10] [µM] | SMILES | also measured
5.6±3.6 | 0.79 ± 0.28 | 0.86 | 0.94±0.04 | 0.99 | 1 | 1.31±0.16 | 2.4 | Cc1cccnc1NC(=O)[C@@H](C)c1ccc(-c2ccccc2)c(F)c1 [(S)-Flu-AM1] | mode of inhibition (best-fit model) (rat brain FAAH): linear mixed inhibition; IC50 (mouse brain FAAH [3]): 11 µM; pI50 (mouse brain FAAH [3]): 4.96±0.04
3.2±1.5 | 0.8 ± 0.21 | 0.89 | 0.81±0.08 | 0.59 | 0.589 | 1.33±0.38 | 0.53 | Cc1cccnc1NC(=O)[C@@H](C)c1ccc(CC(C)C)cc1 [(S)-Ibu-AM5, 2-(4-Isobutylphenyl)-N-(3-methylpyridin-2-yl)propanamide] | interaction with carprofen in multiple inhibition experiments (rat brain FAAH; 0.5 μM [3H]AEA): mutually exclusive manner; IC50 (mouse brain FAAH [1]; read-out: IC50): 7 µM; IC50 (mouse brain FAAH [1]; read-out: pI50 (converted)): 6.92 µM
3.1±1.1 | 10 ± 2.5 | 9.8 | 1.05±0.10 | 5.7 | 5.62 | 1.50±0.36 | 8.8 | Cc1cccnc1NC(=O)[C@H](C)c1ccc(CC(C)C)cc1 [(R)-Ibu-AM5, 2-(4-Isobutylphenyl)-N-(3-methylpyridin-2-yl)propanamide] | fold less potent an inhibitor of FAAH than the (S)-enantiomer (rat brain FAAH; rat FAAH): 10 fold; inhibition (rat brain FAAH; rat brain homogenates, 0.5 μM [3H]AEA, read-out: maximum inhibition (best fit)): 92%; IC50 (mouse brain FAAH [1]; read-out: IC50): 53 µM
3.2±1.3 | 0.63 ± 0.17 | 0.28 | 0.90±0.04 | 0.74 | 0.741 | 0.78±0.09 | 1.6 | Cc1cccnc1NC(=O)[C@H](C)c1ccc(-c2ccccc2)c(F)c1 [(R)-Flu-AM1, (R)-2-(2-fluorobiphenyl-4-yl)-N-(3-methylpyridin-2-yl)propanamide] | remaining activity at 0.7 µM (rat brain FAAH; preincubation 0 min at 37°C): 50 ± 1%; remaining activity at 0.7 µM (rat brain FAAH; preincubation 60 min at 37°C): 39 ± 4%; mode of inhibition (best-fit model) (rat brain FAAH): linear mixed inhibition; reversibility of inhibition (rat brain FAAH; 20-fold dilution after 60 min of preincubation): completely reversible; interaction with carprofen in multiple inhibition experiments (rat brain FAAH; 0.5 μM [3H]AEA): mutually exclusive manner; nH [2, 11]: 0.99±0.06; IC50 ([2]; FAAH^wt + empty vector (0.36 μg/assay) lysates, 18 h, 0.5 μM [3H]AEA, read-out: IC50): 8 µM; IC50 ([2]; FAAH^wt + empty vector (0.36 μg/assay) lysates, 18 h, 0.5 μM [3H]AEA, read-out: pI50 (converted)): 7.94 µM; nH [2, 12]: 1.02±0.07; IC50 ([2]; FAAH^wt lysate 0.04 μg/assay, 18 h, 0.5 μM [3H]AEA, read-out: IC50): 8.3 µM; IC50 ([2]; FAAH^wt lysate 0.04 μg/assay, 18 h, 0.5 μM [3H]AEA, read-out: pI50 (converted)): 8.32 µM; nH (FAAH^T488A): 1.47±0.37; IC50 (FAAH^T488A; read-out: IC50): 28 µM; IC50 (FAAH^T488A; read-out: pI50 (converted)): 28.2 µM; mode of inhibition (mouse brain FAAH [3]; mouse brain FAAH): competitive; IC50 (mouse brain FAAH [3]): 8.8 µM; pI50 (mouse brain FAAH [3]): 5.05±0.06
– | – | – | – | 1.2 | 1.2 | – | – | Cc1cccnc1NC(=O)C(C)c1ccc(CC(C)C)cc1 (racemic) [racemic Ibu-AM5, 2-(4-Isobutylphenyl)-N-(3-methylpyridin-2-yl)propanamide] | –
– | – | – | 1.66±0.13 | – | – | – | – | CC(C(=O)O)c1ccc2c(c1)[nH]c1ccc(Cl)cc12 (stereo not shown) [Carprofen, reference compound] | nH [2, 11]: 4.28±0.41; nH [2, 12]: 3.00±0.31; maximum inhibition (best fit) ([2]; wild-type FAAH lysates, 18 h): 82–91%; nH (FAAH^T488A): 2.43±0.37
– | – | – | – | 68 | 67.6 | – | – | Cc1cccnc1NC(=O)Cc1ccc(CC(C)C)cc1 [Ibufenac-AM1, 2-(4-Isobutylphenyl)-N-(3-methylpyridin-2-yl)acetamide] | –
